According to patent publication US8748375B2 (Amylin Pharmaceuticals, LLC, priority 2009, dated 2014):
Marks after values point to notes of the source that are not given here.

Legend:
[1] = in vivo; cited from earlier work
[2] = tested on: High fat-fed male SPRAGUE-DAWLEY rats (DIO); experiment: Example 1: chronic infusion, food consumption, body weight, body composition; assay type: in vivo, rat; settings: obesity-prone rats, vs vehicle control
Protocol: (§1) Low fat-fed rats (11% kcal from fat, D12329, Research Diets) were also implanted with pumps delivering vehicle. Food intake and body weight measurements were obtained weekly.
Rats were sacrificed by cardiac puncture under anesthesia. Triglyceride levels were measured on a COBAS Mira plasma analyzer (Roche), and leptin and insulin were assayed according to Linco Research rat RIA kits. Body composition was measured by chemical analysis (Covance Laboratories, Madison, Wis.).
All data are represented as mean±SEM. Analysis of variance was used to test for group differences.
The rats were fattened for 10 weeks prior to drug treatment. The high fat-fed rats were designated as obesity-prone (top 50% of weight gainers) or obesity-resistant (bottom 50%) based on the amount of weight gained through week 7.

high fat-fed rats = experiment: Example 2: three doses of amylin, food intake and body weight; assay type: in vivo, rat
Text: as §1

[3] = tested on: Lean, male Harlan SPRAGUE DAWLEY (HSD) rats; experiment: Example 3: chronic amylin infusion, lean rats; assay type: in vivo, rat; set-up: Fat: dose or concentration left out as unconfirmed
Protocol: (§2) Lean, male Harlan SPRAGUE DAWLEY® (HSD) (Harlan 7012) rats were maintained on “standard chow” (˜5% calories from fat).
(§3) Food intake and body weight were recorded daily (FIGS. 5, 6A, 6B, 7, 8A, and 8B).
(§4) On the final day of the experiment, rats were deeply anaesthetized and sacrificed by cardiac puncture. Plasma triglycerides, glucose, and cholesterol were measured on a COBAS Mira plasma Analyzer (Roche). Plasma leptin and insulin were measured using Linco Research kits. (See, FIGS. 9A-9F and 10A-10E.) Body composition was measured by chemical analysis (Covance Laboratories, Madison, Wis.). Fat pad weights of the epididymal, retroperitoneal, subcutaneous, and perirenal fat pads (all unilateral; analysis only done in DIO animals) were carefully dissected and weighed (FIGS. 12A-12D). In analyzing the tissue biochemistry, […] were powdered under liquid N2 and extracted in chloroform:methanol. 0.6% NaCl solution was then added and the tubes were vortexed, centrifuged, and the organic phase was transferred to glass scintillation vials and dried under a stream of N2. Dried lipids were resuspended and triglycerides were quantified by enzymatic assay (Pointe Scientific, Inc.). Tissue glycogen was measured by the amyloglucosidase method. (See FIGS. 11A-11D.)
(§5) All data are represented as mean±SEM. Analysis of variance (ANOVA) and Bonferroni post-hoc tests were used to test for group differences (SYSTAT® for Windows). A P-value<0.05 was considered significant. Graphs were generated using PRISM® 4 for Windows (Graphpad Software).

DIO (Levin) male rats = experiment: Example 3: chronic amylin infusion, DIO rats; assay type: in vivo, rat; set-up: Ash: dose or concentration left out as unconfirmed
Protocol: as §2, §3, §4, §5

[4] = tested on: Retired female breeder rats on high fat diet; experiment: Example 4: amylin with prior or concurrent food restriction; assay type: in vivo, rat; settings: for Estimated Mean Weight change from treatment: amylin 100 μg/kg/day
Text: Retired female breeder rats were maintained on a high fat diet (40% fat) for 8 weeks. Prior to drug treatment, rats were either ad-lib fed or food restricted to 95% of their starting body weight.

DIO Levin rats = experiment: Example 5: amylin versus pramlintide; assay type: in vivo, rat; settings: 76 nmol/kg/day, osmotic mini-pump, 24 days
Protocol: 48 DIO Levin rats (an in-bred model of diet induced obesity) were used in this study. […] Food intake and body weight was measured daily. […] The pair-fed groups were only allowed to consume the daily intakes of their respective drug-treated groups. For body composition, rats were scanned in a rodent NMR before treatment and after sacrifice (at the end of the study), allowing for the ability to calculate changes in carcass fat and protein (e.g., lean tissue).

[5] = tested on: insulin-stimulated glycogen synthesis in soleus muscle; experiment: Soleus Muscle Assay; assay type: cell-based, rat
Protocol: Concentrations of peptide dissolved in carrier-free buffers are determined by quantitative amino acid analysis, as described therein. The ability of compounds to act as agonists in this assay is determined by measuring EC50 values. […] Similar results were obtained with other agonist compounds listed above.

[6] = adsorption onto glass in liquid form; assay type: physicochemical; settings: glass container
Text: These formulations may then be lyophilized. Surfactants can cause denaturation of protein, both of hydrophobic disruption and by salt bridge separation. Relatively low concentrations of surfactant may exert a potent denaturing activity, because of the strong interactions between surfactant moieties and the reactive sites on proteins. However, judicious use of this interaction can stabilize proteins against interfacial or surface denaturation. Surfactants which could further stabilize the peptide may optionally be present in the range of about 0.001 to 0.3% (w/v) of the total formulation and include polysorbate 80 (i.e., polyoxyethylene(20) sorbitan monooleate), CHAPS® (i.e., 3-[(3-cholamidopropyl) dimethylammonio] 1-propanesulfonate), Brij® (e.g., Brij 35, which is (polyoxyethylene (23) lauryl ether), poloxamer, or another non-ionic surfactant.

[7] = pramlintide 180 mcg TID, 1 day of treatment; cited from earlier work
[8] = amylin 300 mg/kg/day, 28-day pump
[9] = DIO rats, amylin 300 mg/kg/day, 28-day pump

CSNLSTCVLGKLSQELHKLQTYPRTNTGSGTP [salmon calcitonin]
delayed effect, peak levels still maintained at [1]: 240 min

amylin: Amylin synthesized by Amylin Pharmaceuticals, Inc. by solid-phase chemistry; species not stated in the examples (KCNTATCATQRLANFLVHSSNNFGAILSSTNVGSNTY; Islet amyloid polypeptide; UniProt P10997 34-70, looked up)
protein (body composition) [2]: increase in protein
body weight gain (high fat-fed rats; 30 μg/kg/day): reduction in body weight gain
effects on food intake and body weight (high fat-fed rats; 30, 100, 300 μg/kg/day): dose-dependent
weight gain compared to vehicle rats [3]: significant reduction in weight gain
Moisture [3, 8]: 67.57 ± 0.7 %
Protein [3, 8]: 20.67 ± 0.74%
Weight [3, 8]: 392.25* g
Fat ([3]; amylin, 28-day pump): 7.2 ± 1.5 %
percent body fat ([3]; relative to pair-fed): lower percent body fat relative to pair-fed
percent body fat (DIO (Levin) male rats; DIO rats): significant decrease in percent body fat
percent protein (DIO (Levin) male rats; DIO rats): significant preservation or gain in percent protein
weight gain compared to vehicle rats (DIO (Levin) male rats; DIO rats): significant reduction in weight gain
Ash (DIO (Levin) male rats; DIO rats, 28-day pump): 1.65 ± 0.34%
Fat (DIO (Levin) male rats; [9]): 24.3 ± 6.5 %
Moisture (DIO (Levin) male rats; [9]): 56.68 ± 4.4 %
Protein (DIO (Levin) male rats; [9]): 18.09 ± 1.68 %
Weight (DIO (Levin) male rats; [9]): 548.94* g
muscle glycogen content (DIO (Levin) male rats; rat, in vivo): significantly reduced muscle glycogen content
Estimated Mean Weight change from treatment ([4]; Ad-lib prior, Ad-lib during): -21.8 ± 1.4 g
Estimated Mean Weight change from treatment ([4]; Ad-lib prior, Restricted during): -23.1 ± 2.3 g
Estimated Mean Weight change from treatment ([4]; Restricted prior, Ad-lib during): -18.2 ± 2.5 g
Estimated Mean Weight change from treatment ([4]; Restricted prior, Restricted during): -17.1 ± 2.0 g
body weight ([4]; all treatment conditions): significantly reduced body weight under all treatment conditions
food intake ([4]; vs vehicle treated counterparts): ate less than their vehicle treated counterparts
body composition (DIO Levin rats): favorable effects on body composition
body weight gain (DIO Levin rats): significant effect on slowing body weight gain
effect on food intake tapers off after [1]: 60 min
onset of effect on food intake [1]: ≤ 30 min

CC[C@H](C)[C@H](NC(=O)[C@@H]1CCCN1C(=O)CNC(=O)[C@H](Cc1ccccc1)NC(=O)[C@H](CC(N)=O)NC(=O)[C@H](CC(N)=O)NC(=O)[C@H](CO)NC(=O)[C@H](CO)NC(=O)[C@H](Cc1c[nH]cn1)NC(=O)[C@@H](NC(=O)[C@H](CC(C)C)NC(=O)[C@H](Cc1ccccc1)NC(=O)[C@H](CC(N)=O)NC(=O)[C@H](C)NC(=O)[C@H](CC(C)C)NC(=O)[C@H](CCCNC(=N)N)NC(=O)[C@H](CCC(N)=O)NC(=O)[C@@H](NC(=O)[C@H](C)NC(=O)[C@@H]1CSSC[C@H](NC(=O)[C@@H](N)CCCCN)C(=O)N[C@@H](CC(N)=O)C(=O)N[C@@H]([C@@H](C)O)C(=O)N[C@@H](C)C(=O)N[C@@H]([C@@H](C)O)C(=O)N1)[C@@H](C)O)C(C)C)C(=O)N[C@@H](CC(C)C)C(=O)N1CCC[C@H]1C(=O)N1CCC[C@H]1C(=O)N[C@H](C(=O)N[C@@H](CC(N)=O)C(=O)N[C@H](C(=O)NCC(=O)N[C@@H](CO)C(=O)N[C@@H](CC(N)=O)C(=O)N[C@H](C(=O)N[C@@H](Cc1ccc(O)cc1)C(N)=O)[C@@H](C)O)C(C)C)[C@@H](C)O [^25, 28, 29Pro-h-Amylin]
amylin agonist activity (in words) [5]: act as amylin agonists
antagonist activity in soleus muscle assay (in words) [5]: negligible antagonist activity
tendency to adsorb onto glass [6]: does not have a tendency to adsorb onto the glass
body composition (DIO Levin rats): favorable effects on body composition
body weight gain (DIO Levin rats): significant effect on slowing body weight gain
reduction in mean daily caloric intake [7]: ~19%
